From patent US20060182683A1, “Methods for reduced renal uptake of protein conjugates” (Center for Molecular Medicine and Immunology, priority 1995, published 2006)

Experiments:
[1] = test system: mice; experiment: Biodistribution of 99mTc-Fab′ NP-4 under poly-L-lysine of different molecular weight and lysine/poly-lysine mixtures; conditions: for Blood level of 99mTc-Fab′ NP-4 / Kidney uptake of 99mTc-Fab′ NP-4 / Kidney uptake, % control / Liver uptake of 99mTc-Fab′ NP-4 / Lungs uptake of 99mTc-Fab′ NP-4 / Spleen uptake of 99mTc-Fab′ NP-4: 4 h p.i.
Procedure: Female BALB/c mice, 19 to 22 g of weight, 4 to 5 weeks of age (Charles River Laboratories, Boston, Mass.) were used as non-tumor-bearing animals. For a human tumor xenograft model, the human colon carcinoma cell line GW39 (Primus et al supra) was grown subcutaneously in 5- to 6-week-old female athymic mice (Harlan, Madison, Wis.). Animals were injected intravenously into the tail vein with approximately 5-10 μg of antibody fragment protein (i.e., 25-40 μCi of ^99mTc, ^188Re, and ^111In, resp.; 4 μCi of ^88Y, and 10 μCi of ^125I, respectively).
The mice were sacrificed after 4 h and 24 h for ^99mTc-labeled antibodies, and after 4, 24, 72, 96 and 168 h for ^125I, ^111In, ^88Y and ^188Re-labeled antibodies. Mice were sacrificed by anesthesia with sodium pentobarbital and bled by cardiac puncture. After cervical dislocation, the animals were dissected. Radioactivity in the tumors and tissues (liver, spleen, kidney, lung, intestine, blood and bone) was determined by gamma scintillation counting using an injection standard to correct for physical decay.
L-lysine, D-lysine and L-arginine monohydrochloride salts (Sigma, St. Louis, Mo.) were dissolved in phosphate-buffered saline (PBS) at a concentration of 160 mg/ml. L-lysine ethyl ester dihydrochloride was dissolved in PBS to yield a concentration of 80 mg/ml. Poly-L-lysine (1-4 kDa and 15-30 kDa) were used as hydrochloride salts at concentration of 25 mg/ml and 10 mg/ml, respectively.
Animals were injected with the lysine and/or poly-lysine solutions intraperitoneally in amounts and at frequencies as shown below. Human patients were infused intravenously over a three-hour period with 1.5 liters of a commercially available amino acid solution starting 15 min before the antibody injection. The data of a total of 77 patients examined with ^99mTc-labeled anti-CEA Fab′ (NP-4: n=19; F023C5: n=58) were taken as controls (infused with the same volume of 0.9% saline instead of the amino acid solution).
To attempt to reduce the necessity of frequent injections of the kidney uptake reducing agent, polymeric substances of higher molecular weight were investigated.
To reach maximal effectiveness with as few injections as possible, combinations of lysine and poly-lysine were tested.

[2] = test system: BALB/c mice; experiment: Kidney uptake and biodistribution of 99mTc-Fab′ NP-4 under lysine treatment; assay type: in vivo; conditions: for Kidney uptake, % of contr.: L-lysine 2000 μg/g
Procedure: (§1) After cervical dislocation, the animals were dissected.
(§2) L-lysine was injected i.p. in hourly intervals from 30 min before until 3 h after intravenous antibody injections (−30′, 1 h, 2 h, 3 h p.i.). […] At doses above this threshold, a strong dose-effect relationship was found. At 4×2000 μg/g, kidney uptake was reduced to 19±1% of the untreated control group at 4 h p.i.

[3] = test system: mice; experiment: Kidney uptake of 111In- and 88Y-labeled F(ab)2 fragments of MN-14; assay type: in vivo
Source text: as §1

[4] = test system: GW39 colonic cancer xenograft bearing nude mice; experiment: Biodistribution of anti-CEA 99mTc-Fab′ NP-4 under L-lysine / poly-L-lysine treatment; assay type: in vivo
Source text: as §1

[5] = test system: GW39 colonic cancer xenograft bearing nude mice; experiment: Dosimetry of 111In/88Y-Bz-DTPA-Fab′ MN-14 under L-lysine treatment; assay type: in vivo; conditions: L-lysine four times 2000 μg/g i.p.
Procedure: as §1
To test the effectiveness of L-lysine in reduction of kidney uptake of indium and yttrium-labeled Fab′ fragments, a mixture of ^111In and ^88Y-labeled Fab′ fragments of the anti-CEA antibody MN-14 were injected into GW39 colon carcinoma bearing nude mice (injected with four times 2000 μg/g L-lysine; the control group were untreated). FIG. 4 and Table 4 suns the results.

[6] = test system: mice; experiment: Kidney uptake and dosimetry of yttrium-labeled F(ab′)2 of anti-CD22 LL2 under L-lysine; assay type: in vivo; conditions: Lys treated
[7] = test system: nude mice bearing GW39 colonic cancer xenografts; experiment: Kidney uptake and dosimetry of 188Re-Fab′ Mu-9 under L-lysine treatment; assay type: in vivo
Source text: as §1
No effect on the uptake in the tunor or other organs was observed.

[8] = test system: mice; experiment: Maximum tolerated dose and toxicity of lysine and poly-lysine; assay type: in vivo
Source text: Comparison of the results in the control mice with those in the mice that receive the lysine and/or poly-lysine allows determination of the optimal dosage required to achieve the desired effect on kidney uptake of radioactivity. Determination of the dosage of lysine and/or poly-lysine that can be tolerated before toxic effects are observed can be achieved by physiological examination and histological observation of organs by methods. The optimal dosages of lysine and/or poly-lysine that are determined using the mouse model are used to guide the determination of appropriate dosage levels in human subjects using a standard dosage escalation regimen. Methods for determining effective dosages of lysine and/or poly-lysine for reducing kidney uptake are further illustrated in the Examples, below.
as §2

[9] = test system: mice; experiment: Kidney uptake of 125I-labeled Fab′ NP-4 and dosimetry for 131I-labeled Fab′ under L-lysine; assay type: in vivo
Source text: as §1

[10] = 15-30 kD, 10 μg/g once 30′ before antibody
[11] = 15-30 kD, 20 μg/g once 30′ before antibody
[12] = poly-L-lysine administered twice (30′ before and 1 h after antibody), first treated column, dose and size not given
[13] = poly-L-lysine administered twice (30′ before and 1 h after antibody), second treated column, dose and size not given
[14] = poly-L-lys 0.15 mg/g i.v. at −30′, 4 h p.i.
[15] = poly-L-lys 0.15 mg/g i.v. at −30′, 24 h p.i.
[16] = 1-4 kD, 100 μg/g once 30′ before antibody
[17] = 1-4 kD, 200 μg/g once 30′ before antibody
[18] = 1-4 kD, 300 μg/g once 30′ before antibody
[19] = 131I-Fab′ NP-4, L-lysine 4 × 2 mg/g

## Poly-L-lysine [poly-L-lysine (15-30 kD)]
[1]; 1×20 μg/g
  kidney uptake reduction: 50%
[1]; [10]
  Blood level of 99mTc-Fab′ NP-4: 4.7 ± 0.3
  Kidney uptake of 99mTc-Fab′ NP-4: 73.9 ± 7.2
  Kidney uptake, % control: 57.8 % control
  Liver uptake of 99mTc-Fab′ NP-4: 7.3 ± 3.7
  Lungs uptake of 99mTc-Fab′ NP-4: 6.8 ± 4.3
  Spleen uptake of 99mTc-Fab′ NP-4: 3.7 ± 0.4
[1]; [11]
  Blood level of 99mTc-Fab′ NP-4: 4.7 ± 0.2
  Kidney uptake of 99mTc-Fab′ NP-4: 55.7 ± 6.5
  Kidney uptake, % control: 43.6 % control
  Liver uptake of 99mTc-Fab′ NP-4: 4.6 ± 0.7
  Lungs uptake of 99mTc-Fab′ NP-4: 7.9 ± 3.2
  Spleen uptake of 99mTc-Fab′ NP-4: 3.8 ± 0.3

## NCCCC[C@@H](N)C(=O)O [D-lysine]
[2]; four hourly injections i.p., same conditions as L-lysine
  lowering of kidney uptake compared with L-lysine: equally as effective as the L-isomer

## poly-L-lysine
[1]; [12]
  Kidney uptake of 99mTc-Fab′ NP-4: 43.7 ± 10.0
  Kidney uptake, % control: 59.9 % control
[1]; [13]
  Kidney uptake of 99mTc-Fab′ NP-4: 41.6 ± 8.8
  Kidney uptake, % control: 56.9 % control

## Y labeled F(ab)2: 88Y-Bz-DTPA-labeled F(ab)2 fragment of the anti-CEA antibody MN-14
[3]; up to 24 h p.i., no lysine
  highest value of kidney uptake: about 43 % of the injected dose/g

## Poly-L-lysine [poly-L-lysine (1-4 kD)]
[4]; [14]
  Blood level of 99mTc-Fab′ NP-4: 1.7 ± 0.2
  GW39 uptake of 99mTc-Fab′ NP-4: 3.0 ± 1.0
  Kidney uptake of 99mTc-Fab′ NP-4: 30.8 ± 6.0
  Kidney uptake, % of contr.: 52.2 % of contr.
  Liver uptake of 99mTc-Fab′ NP-4: 1.5 ± 0.2
  Lung uptake of 99mTc-Fab′ NP-4: 3.1 ± 1.2
  Spleen uptake of 99mTc-Fab′ NP-4: 1.0 ± 0.1
[4]; [15]
  Blood level of 99mTc-Fab′ NP-4: 0.3 ± 0.0
  GW39 uptake of 99mTc-Fab′ NP-4: 2.2 ± 0.3
  Kidney uptake of 99mTc-Fab′ NP-4: 25.3 ± 5.7
  Kidney uptake, % of contr.: 94.7 % of contr.
  Liver uptake of 99mTc-Fab′ NP-4: 0.9 ± 0.1
  Lung uptake of 99mTc-Fab′ NP-4: 0.8 ± 0.6
  Spleen uptake of 99mTc-Fab′ NP-4: 0.7 ± 0.1
[1]; [16]
  Blood level of 99mTc-Fab′ NP-4: 3.8 ± 0.1
  Kidney uptake of 99mTc-Fab′ NP-4: 95.5 ± 4.3
  Kidney uptake, % control: 74.8 % control
  Liver uptake of 99mTc-Fab′ NP-4: 3.0 ± 0.2
  Lungs uptake of 99mTc-Fab′ NP-4: 5.9 ± 3.1
  Spleen uptake of 99mTc-Fab′ NP-4: 3.0 ± 0.4
[1]; [17]
  Blood level of 99mTc-Fab′ NP-4: 4.4 ± 0.5
  Kidney uptake of 99mTc-Fab′ NP-4: 80.5 ± 6.9
  Kidney uptake, % control: 63.0 % control
  Liver uptake of 99mTc-Fab′ NP-4: 3.0 ± 0.4
  Lungs uptake of 99mTc-Fab′ NP-4: 3.9 ± 2.6
  Spleen uptake of 99mTc-Fab′ NP-4: 2.7 ± 0.4
[1]; [18]
  Blood level of 99mTc-Fab′ NP-4: 5.3 ± 1.4
  Kidney uptake of 99mTc-Fab′ NP-4: 67.9 ± 7.5
  Kidney uptake, % control: 53.2 % control
  Liver uptake of 99mTc-Fab′ NP-4: 3.5 ± 0.8
  Lungs uptake of 99mTc-Fab′ NP-4: 5.6 ± 1.0
  Spleen uptake of 99mTc-Fab′ NP-4: 3.5 ± 0.4
[1]; single i.p. injection
  kidney uptake reduction compared with the monomer: significantly lower doses than the monomer

## NCCCC[C@H](N)C(=O)O [L-lysine]
[2]; 4×2000 μg/g i.p. in hourly intervals, 4 h p.i.
  kidney uptake of 99mTc-Fab′ NP-4, % of the untreated control group: 19±1%
[2]; injection 4x at −30′, 1, 2, 3 h, 4 h p.i.
  Kidney uptake, % of contr.: 15.5 % of contr.
[2]; injection once at −30′, 4 h p.i.
  Kidney uptake, % of contr.: 56.4 % of contr.
[2]; injection twice at −30′ and 1 h, 4 h p.i.
  Kidney uptake, % of contr.: 44.1 % of contr.
[2]; doses below four times 100 μg/g body weight, hourly intervals
  effect on kidney uptake of 99mTc-Fab′ NP-4: no significant effect
[2]; mouse, in vivo
  persistence of uptake reduction of 99mTc-Fab′: 24 h
[3]; F(ab′)2 fragments
  persistence of reduction of uptake: persisted for several days
[3]; lysine treatment
  kidney uptake of 111In- and 88Y-F(ab′)2, % of control: approximately 30%
[5]
  Kidney dose relative to control (100%), based on 88Y: 18.8%
  Kidney dose relative to control (100%), based on 111In: 22.9%
[4]; L-lysine 0.5 mg/g i.p. at −30′, 1, 2, 3 h, 4 h p.i.
  Kidney uptake, % of contr.: 63.0 % of contr.
[4]; L-lysine 0.5 mg/g i.p. at −30′, 1, 2, 3 h, 24 h p.i.
  Kidney uptake, % of contr.: 70.0 % of contr.
[4]; L-lysine 2 mg/g i.p. at −30′, 1, 2, 3 h, 4 h p.i.
  Kidney uptake, % of contr.: 29.7 % of contr.
[4]; L-lysine 2 mg/g i.p. at −30′, 1, 2, 3 h, 24 h p.i.
  Kidney uptake, % of contr.: 30.0 % of contr.
[4]; nude mice bearing human colonic xenografts
  influence on the tumor uptake or uptake in any other organ than the kidneys: no significant influence
[6]
  Kidney dose, % control: 50.9 % control
[6]; 4 h p.i.
  Kidney uptake, % control: 58.5 % control
[6]; 48 h p.i.
  Kidney uptake, % control: 49.6 % control
[7]; 188Re-Fab′ Mu-9
  effect on the uptake in the tumor or other organs: No effect
  lys/contr. dose ratio, Blood: 0.79
  lys/contr. dose ratio, Bone: 0.89
  lys/contr. dose ratio, GW39: 1.23
  lys/contr. dose ratio, Kidney: 0.39
  lys/contr. dose ratio, Liver: 0.96
  lys/contr. dose ratio, Lung: 0.76
  lys/contr. dose ratio, Spleen: 0.94
[7]; 188Re-Mu-9 Fab′ dosimetry
  effect on the tumor dose: no effect on the tumor dose could be observed
  kidney dose, % of the renal dose in the control group: approximately 30%
[7]; 4 h p.i.
  kidney uptake of 188Re-Fab′ Mu-9, % of the untreated control: 29%
[8]; 4×2500 μg/g, monitored for three months
  tolerability at the MTD: tolerated without any obvious short or long term toxicity
[8]; 4× injected i.p. in hourly intervals
  maximum tolerated dose (MTD): 2500 µg/g
[8]; above 4×2500 μg/g
  toxicity at doses higher than the MTD: began to develop fluid in the body cavities
[9]; 125I-Fab′ NP-4, 4 h p.i.
  kidney uptake of iodine-labeled Fab′, % of the nontreated control: 38.7%
[9]; [19]
  Lys/control dose ratio, Blood: 0.99
  Lys/control dose ratio, Kidney: 0.51
  Lys/control dose ratio, Liver: 0.94
  Lys/control dose ratio, Lung: 0.95
  Lys/control dose ratio, Spleen: 0.81
[9]; calculated for a 131I-labeled Fab′ fragment
  reduction of the absorbed dose to the kidney: 50%
